Measured values: patent publication US7342004B2, “Thioether sulphamate steroids as steroid inhibitors and anti-cancer compounds” (Sterix Ltd., priority 2000, dated 2008)

Legend:
CuZnSOD = CuZnSOD (UniProt P00442); assay: Superoxide dismutase (SOD) spectrophotometric XTT assay, Protocol 1; assay type: biochemical; settings: xanthine oxidase/XTT, 24° C., 30 minutes, read-out: IC 50/μM (+/− SEM) SOD Inhibition
Method: In this reaction, 3′-{1-[(phenylamino)-carbonyl]-3,4-tetrazolium}-bis(4-methoxy-6-nitro)benzenesulfonic acid hydrate (XTT) is converted to a colourimetric product by the action of superoxide ions (produced by xanthine oxidase (XO) and xanthine). Production of superoxide ions is inhibited by SOD resulting in decreased product. The ability of test compounds to inhibit SOD is measured by their ability to restore production of the coloured product. Reactions were performed in a total volume of 0.1 ml of buffer A (42 mM Na2CO3 (pH 9.4), 0.1 mM xanthine (Sigma), 0.1 mM EDTA, 0.026 mM XTT (Sigma)).
The reaction was incubated at 24° C. for 30 minutes and products determined by measuring absorobance at 470 nm. All determinations were made in duplicate/triplicate.
SOD activity was measured in accordance with Protocol 1.
Initial analyses were performed using test compounds at 100 μM.

uterus = settings: rat, in vivo; cited from earlier work
steroid sulphatase = target: T1, steroid sulphatase (Homo sapiens, UniProt P08842); settings: cited from earlier work
T1 sequence (P08842 22-583): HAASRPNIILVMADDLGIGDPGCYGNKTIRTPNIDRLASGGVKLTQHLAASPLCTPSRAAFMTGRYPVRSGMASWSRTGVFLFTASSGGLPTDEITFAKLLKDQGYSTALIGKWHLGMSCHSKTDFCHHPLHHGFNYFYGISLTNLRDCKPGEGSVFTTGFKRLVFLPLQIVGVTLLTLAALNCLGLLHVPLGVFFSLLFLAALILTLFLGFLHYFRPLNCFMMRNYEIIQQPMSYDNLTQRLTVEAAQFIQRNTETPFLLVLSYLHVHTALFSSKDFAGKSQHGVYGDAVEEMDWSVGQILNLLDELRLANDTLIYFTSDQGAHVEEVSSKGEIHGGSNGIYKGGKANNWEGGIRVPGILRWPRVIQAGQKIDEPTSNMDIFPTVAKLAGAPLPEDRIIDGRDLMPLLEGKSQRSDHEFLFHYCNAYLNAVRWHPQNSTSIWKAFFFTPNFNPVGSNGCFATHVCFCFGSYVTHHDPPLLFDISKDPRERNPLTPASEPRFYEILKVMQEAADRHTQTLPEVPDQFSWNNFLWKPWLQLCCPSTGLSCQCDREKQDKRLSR

steroid sulphatase (STS) = target: T2, steroid sulphatase (STS) (Homo sapiens, UniProt P08842); assay: Inhibition of steroid sulphatase activity in placental microsomes, Protocol 4; assay type: biochemical
T2 sequence (P08842 22-583): T1 sequence (P08842 22-583)
Method: Sulphatase-positive human placenta from normal term pregnancies are thoroughly minced with scissors and washed once with cold phosphate buffer (pH 7.4, 50 mM) then resuspended in cold phosphate buffer (5 ml/g tissue). Homogenisation is accomplished with an Ultra-Turrax homogeniser, using three 10 second bursts separated by 2 minute cooling periods in ice. Nuclei and cell debris are removed by centrifuging (4° C.) at 2000 g for 30 minutes and portions (2 ml) of the supernatant are stored at […] The protein concentration of the supernatants is determined by the method of Bradford (Anal. Biochem., 72, 248-254 (1976)).
Incubations (1 ml) are carried out using a protein concentration of […], substrate concentration of […] [6,7-3H]oestrone-3-sulphate (specific activity 60 Ci/mmol from New England Nuclear, Boston, Mass., U.S.A.) and an incubation time of 20 minutes at 37° C. If necessary eight concentrations of compounds are employed: 0 (i.e. control); 0.05 mM; 0.1 mM; 0.2 mM; 0.4 mM; 0.6 mM; 0.8 mM; 1.0 mM. After incubation each sample is cooled and the medium (1 ml) was pipetted into separate tubes containing [14C]oestrone (7×10^3 dpm) (specific activity 97 Ci/mmol from Amersham International Radiochemical Centre, Amersham, U.K.). The mixture is shaken thoroughly for 30 seconds with toluene (5 ml). Experiments have shown that >90% [14C]oestrone and <0.1% [3H]oestrone-3-sulphate is removed from the aqueous phase by this treatment. A portion (2 ml) of the organic phase was removed, evaporated and the 3H and 14C content of the residue determined by scintillation spectrometry. The mass of oestrone-3-sulphate hydrolysed is calculated from the 3H counts obtained (corrected for the volumes of the medium and organic phase used, and for recovery of [14C]oestrone added) and the specific activity of the substrate.
(§1) The STS inhibition provided by the compounds was determined in accordance with the placental microsomes assay of Protocol 4 and a plate assay.

[1] = system: MCF7, CAL51, CAMA1 and ZR-75-1 breast cancer derived cell lines; assay: Cell cycle and apoptosis analysis in breast cancer cell lines; assay type: cell-based, human
Method: MCF7, CAL51, CAMA1 and ZR-75-1 breast cancer derived cell lines were obtained from ATCC (MCF7, CAMA1, ZR-75-1) or from the Dutrillaux laboratory (CAL51) (22) and maintained in Dulbecco's modified Eagle's medium (DMEM) supplemented with 10% (v/v) fetal calf serum and antibiotics.
DNA content was determined by flow cytometric analysis of propidium iodide stained cells and TdT-mediated dUTP-nick end labelling (TUNEL), respectively, as described (20). The proportion of cells in G2/M phase of the cell cycle was calculated as a proportion of cells with […] DNA content. The proportion of cells with <G1 DNA content was calculated as a percentage of total cells.
To determine the proportion of cells in mitosis, drug treated cells were collected by trypsinisation and cytospins prepared. Cells were fixed in ice cold methanol for 5 minutes, air dried and DNA was stained using propidium iodide (PI) (0.1 mg/ml in phosphate buffered saline (PBS) containing 10% (v/v) newborn calf serum and 0.05% (w/v) sodium azide). Cells were analysed by confocal microscopy using a Zeiss Axiovert 100 M microscope equipped with the LSM 510 confocal system (Zeiss, Jena, Germany).
We examined whether the differential sensitivity of breast cancer cell lines to the growth inhibitory effects of the compounds of the present invention.

STS = assay: Plate assay, % inhibition; assay type: biochemical
Method: as §1

SMILES | IC50 (CuZnSOD) [µM] | oestrogenicity (uterus) | potency as a steroid sulphatase inhibitor compared with EMATE (steroid sulphatase) | IC50 (steroid sulphatase (STS); placental microsomes) [nM] | inhibition at 1 µM (steroid sulphatase (STS); read-out: Placental Microsomes, % inhibition 1 μM) [%] | Effect on cell morphology (rounding, detachment) [1] | Plate Assay, % inhibition 0.1 μM (STS; 0.1 μM) [%] | Plate Assay, % inhibition 1 μM (STS; 1 μM) [%] | Plate Assay, % inhibition 10 μM (STS; 10 μM) [%]
COc1cc2c(cc1OS(N)(=O)=O)CC[C@@H]1[C@@H]2CC[C@]2(C)C(=O)CC[C@@H]12 [Compound 25, 2-methoxyestrone-3-O-sulphamate] | > 100 | devoid of oestrogenicity | equipotent with EMATE | – | – | – | – | – | –
CSc1cc2c(cc1OS(N)(=O)=O)CCC1C2CC[C@]2(C)C(=O)CCC12 (stereo partly drawn) [Compound 36] | – | – | – | 120 | 86.9 | induced cells to become rounded and detached from the plate/flask | 3 | 53 | 55
